According to PubChem BioAssay (NCI):
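Method: 48-hour compound exposure of cells in 96-well plates, five concentrations, linear interpolation of endpoints. GI50 = concentration required for 50% inhibition of growth. TGI denotes the concentration required for complete inhibition of growth.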

Assays:
Assay in all cases: NCI anticancer screen, dose series, 48 h
HCT-15 colon = system: HCT-15 colon
HT29 colon = system: HT29 colon
BT-549 breast = system: BT-549 breast
MDA-MB-435 = system: MDA-MB-435
SF-539 CNS = system: SF-539 CNS
K-562 leukemia = system: K-562 leukemia
RXF 393 renal = system: RXF 393 renal
U251 CNS = system: U251 CNS
PC-3 prostate = system: PC-3 prostate
TK-10 renal = system: TK-10 renal
OVCAR-5 ovarian = system: OVCAR-5 ovarian
OVCAR-4 ovarian = system: OVCAR-4 ovarian
MALME-3M melanoma = system: MALME-3M melanoma
NCI-H522 lung = system: NCI-H522 lung
HCT-116 colon = system: HCT-116 colon
HOP-92 NSCLC = system: HOP-92 NSCLC
SW-620 colon = system: SW-620 colon
SK-OV-3 ovarian = system: SK-OV-3 ovarian
KM12 colon = system: KM12 colon
LOX IMVI melanoma = system: LOX IMVI melanoma
NCI-H226 lung = system: NCI-H226 lung
MOLT-4 leukemia = system: MOLT-4 leukemia
SK-MEL-2 melanoma = system: SK-MEL-2 melanoma
UACC-62 melanoma = system: UACC-62 melanoma
EKVX NSCLC = system: EKVX NSCLC
IGROV1 ovarian = system: IGROV1 ovarian
NCI-H460 lung = system: NCI-H460 lung
SN12C renal = system: SN12C renal
MCF7 breast = system: MCF7 breast
HCC-2998 colon = system: HCC-2998 colon
MDA-MB-231 breast = system: MDA-MB-231 breast
NCI/ADR-RES ovarian = system: NCI/ADR-RES ovarian
M14 melanoma = system: M14 melanoma
SF-295 CNS = system: SF-295 CNS
HS 578T breast = system: HS 578T breast
COLO 205 colon = system: COLO 205 colon
RPMI-8226 leukemia = system: RPMI-8226 leukemia
SNB-19 CNS = system: SNB-19 CNS
SK-MEL-5 melanoma = system: SK-MEL-5 melanoma
ACHN renal = system: ACHN renal
786-0 renal = system: 786-0 renal
SNB-75 CNS = system: SNB-75 CNS
A498 renal = system: A498 renal
OVCAR-3 ovarian = system: OVCAR-3 ovarian
NCI-H23 lung = system: NCI-H23 lung
DU-145 prostate = system: DU-145 prostate
A549 NSCLC = system: A549 NSCLC
UO-31 renal = system: UO-31 renal
SR leukemia = system: SR leukemia
UACC-257 melanoma = system: UACC-257 melanoma
OVCAR-8 ovarian = system: OVCAR-8 ovarian
CCRF-CEM leukemia = system: CCRF-CEM leukemia
CAKI-1 renal = system: CAKI-1 renal
HOP-62 NSCLC = system: HOP-62 NSCLC
SK-MEL-28 melanoma = system: SK-MEL-28 melanoma
SF-268 CNS = system: SF-268 CNS
HL-60(TB) leukemia = system: HL-60(TB) leukemia
T-47D breast = system: T-47D breast

## COC(=O)[C@@H](C[C@H](Cc1ccccc1)NC(=O)c1csc([C@@H](C[C@H](C(C)C)N(C)C(=O)[C@@H](NC(=O)[C@H]2CCCCN2C)C(C)C)OC(C)=O)n1)NC(=O)OCc1ccccc1
HCT-15 colon
  GI50: 4.54 nM
  TGI: > 8330 nM
HT29 colon
  GI50: < 0.833 nM
  TGI: > 8330 nM
BT-549 breast
  GI50: 1.49 nM
  TGI: 83.9 nM
MDA-MB-435
  GI50: < 0.833 nM
  TGI: < 0.833 nM
SF-539 CNS
  GI50: < 0.833 nM
  TGI: 3.85 nM
K-562 leukemia
  GI50: < 0.833 nM
  TGI: > 3180 nM
RXF 393 renal
  GI50: 0.948 nM
  TGI: > 8330 nM
U251 CNS
  GI50: < 0.833 nM
  TGI: > 2650 nM
PC-3 prostate
  GI50: < 0.833 nM
  TGI: > 8330 nM
TK-10 renal
  GI50: 107 nM
  TGI: > 8330 nM
OVCAR-5 ovarian
  GI50: 5.38 nM
  TGI: > 8330 nM
OVCAR-4 ovarian
  GI50: 7.17 nM
  TGI: > 8330 nM
MALME-3M melanoma
  GI50: < 0.833 nM
  TGI: 2680 nM
NCI-H522 lung
  GI50: < 0.833 nM
  TGI: 40 nM
HCT-116 colon
  GI50: < 0.833 nM
HOP-92 NSCLC
  GI50: 2.36 nM
  TGI: > 8330 nM
SW-620 colon
  GI50: < 0.833 nM
  TGI: > 8330 nM
SK-OV-3 ovarian
  GI50: 2.65 nM
  TGI: > 8330 nM
KM12 colon
  GI50: < 0.833 nM
  TGI: > 8330 nM
LOX IMVI melanoma
  GI50: < 0.833 nM
  TGI: > 8330 nM
NCI-H226 lung
  GI50: 1.68 nM
  TGI: 136 nM
MOLT-4 leukemia
  GI50: < 0.833 nM
  TGI: > 8330 nM
SK-MEL-2 melanoma
  GI50: < 0.833 nM
  TGI: 3450 nM
UACC-62 melanoma
  GI50: < 0.833 nM
  TGI: > 8330 nM
EKVX NSCLC
  GI50: 17.5 nM
  TGI: > 8330 nM
IGROV1 ovarian
  GI50: < 0.833 nM
  TGI: > 7680 nM
NCI-H460 lung
  GI50: < 0.833 nM
  TGI: > 8330 nM
SN12C renal
  GI50: 1.46 nM
  TGI: > 8330 nM
MCF7 breast
  GI50: < 0.833 nM
  TGI: > 8330 nM
HCC-2998 colon
  GI50: < 0.833 nM
  TGI: > 2890 nM
MDA-MB-231 breast
  GI50: 1.31 nM
  TGI: > 6730 nM
NCI/ADR-RES ovarian
  GI50: 43.9 nM
  TGI: > 1690 nM
M14 melanoma
  GI50: < 0.833 nM
  TGI: 412 nM
SF-295 CNS
  GI50: 1.33 nM
  TGI: > 8330 nM
HS 578T breast
  GI50: < 0.833 nM
  TGI: > 3550 nM
COLO 205 colon
  GI50: < 0.833 nM
RPMI-8226 leukemia
  GI50: < 0.833 nM
  TGI: 2490 nM
SNB-19 CNS
  GI50: < 0.833 nM
  TGI: > 8330 nM
SK-MEL-5 melanoma
  GI50: < 0.833 nM
  TGI: 38.6 nM
ACHN renal
  GI50: 2.93 nM
  TGI: > 8330 nM
786-0 renal
  GI50: 1.65 nM
  TGI: > 8330 nM
SNB-75 CNS
  GI50: < 0.833 nM
  TGI: > 8330 nM
A498 renal
  GI50: 1.1 nM
  TGI: 10.4 nM
OVCAR-3 ovarian
  GI50: < 0.833 nM
NCI-H23 lung
  GI50: 1.19 nM
  TGI: > 8330 nM
DU-145 prostate
  GI50: < 0.833 nM
A549 NSCLC
  GI50: 1.86 nM
  TGI: > 8330 nM
UO-31 renal
  GI50: 11.3 nM
  TGI: > 8330 nM
SR leukemia
  GI50: < 0.833 nM
  TGI: > 3400 nM
UACC-257 melanoma
  GI50: 30.9 nM
  TGI: 2590 nM
OVCAR-8 ovarian
  GI50: < 0.833 nM
  TGI: > 8330 nM
CCRF-CEM leukemia
  GI50: < 0.833 nM
  TGI: > 7920 nM
CAKI-1 renal
  GI50: 1.66 nM
  TGI: > 8330 nM
HOP-62 NSCLC
  GI50: 1.12 nM
  TGI: > 8330 nM
SK-MEL-28 melanoma
  GI50: 906 nM
  TGI: 2390 nM
SF-268 CNS
  GI50: 1.37 nM
  TGI: > 8330 nM
HL-60(TB) leukemia
  GI50: < 0.833 nM
  TGI: 1.62 nM

## CCCCOC(=O)NC(Nc1ccc(S(N)(=O)=O)cc1)(C(F)(F)F)C(F)(F)F
HCT-15 colon
  TGI: > 100000 nM
HT29 colon
  TGI: > 100000 nM
BT-549 breast
  TGI: > 100000 nM
MDA-MB-435
  TGI: > 100000 nM
SF-539 CNS
  TGI: > 100000 nM
K-562 leukemia
  TGI: > 100000 nM
RXF 393 renal
  TGI: > 100000 nM
U251 CNS
  TGI: > 100000 nM
TK-10 renal
  TGI: > 100000 nM
OVCAR-5 ovarian
  TGI: > 100000 nM
MALME-3M melanoma
  TGI: > 100000 nM
NCI-H522 lung
  TGI: > 100000 nM
HCT-116 colon
  TGI: > 100000 nM
SK-OV-3 ovarian
  TGI: > 100000 nM
KM12 colon
  TGI: > 100000 nM
LOX IMVI melanoma
  TGI: > 100000 nM
NCI-H226 lung
  TGI: > 100000 nM
MOLT-4 leukemia
  TGI: > 100000 nM
SK-MEL-2 melanoma
  TGI: > 100000 nM
UACC-62 melanoma
  TGI: > 100000 nM
EKVX NSCLC
  TGI: > 100000 nM
NCI-H460 lung
  TGI: > 100000 nM
SN12C renal
  TGI: > 100000 nM
MCF7 breast
  TGI: > 100000 nM
HCC-2998 colon
  TGI: > 100000 nM
MDA-MB-231 breast
  TGI: > 100000 nM
M14 melanoma
  TGI: > 100000 nM
T-47D breast
  TGI: > 100000 nM
HS 578T breast
  TGI: > 100000 nM
RPMI-8226 leukemia
  TGI: > 100000 nM
SNB-19 CNS
  TGI: > 100000 nM
ACHN renal
  TGI: > 100000 nM
SNB-75 CNS
  TGI: > 100000 nM
A498 renal
  TGI: > 100000 nM
OVCAR-3 ovarian
  TGI: > 100000 nM
NCI-H23 lung
  TGI: > 100000 nM
DU-145 prostate
  TGI: > 100000 nM
UO-31 renal
  TGI: > 100000 nM
SR leukemia
  TGI: > 100000 nM
UACC-257 melanoma
  TGI: > 100000 nM
CCRF-CEM leukemia
  TGI: > 100000 nM
HOP-62 NSCLC
  TGI: > 100000 nM
SK-MEL-28 melanoma
  TGI: > 100000 nM
SF-268 CNS
  TGI: > 100000 nM
HL-60(TB) leukemia
  TGI: > 100000 nM
